The record followed here is patent publication US20070172470A1, “Phosphatase regulation of nucleic acid transcription” (The Regents of the University of California, priority 2003, published 2007).

This assay addresses SCP1 (Homo sapiens, UniProt Q9GZU7). In words: PNθP phosphatase assay in the presence of phosphatase inhibitors. In kind it is biochemical.

Read-outs that look alike come from different tables or passages of the source.

Chain of SCP1 (Q9GZU7 other isoform, or with tags, fused parts or gaps): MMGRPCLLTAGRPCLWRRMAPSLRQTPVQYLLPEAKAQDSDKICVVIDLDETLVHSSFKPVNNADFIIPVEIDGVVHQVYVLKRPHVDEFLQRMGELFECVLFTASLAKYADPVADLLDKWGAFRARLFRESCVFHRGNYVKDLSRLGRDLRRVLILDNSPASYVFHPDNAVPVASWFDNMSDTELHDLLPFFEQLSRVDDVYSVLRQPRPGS

On to `C=C1[C@@H](O)[C@@H]2O[C@]3(CC[C@H](/C=C/[C@@H](C)[C@@H]4CC(C)=C[C@@]5(O[C@H](C[C@@](C)(O)C(=O)O)CC[C@H]5O)O4)O3)CC[C@H]2O[C@@H]1[C@@H](O)C[C@H](C)[C@H]1O[C@@]2(CCCCO2)CC[C@H]1C` [okadaic acid], for which the “SCP1 phosphatase activity in the presence of phosphatase inhibitor” value (GST-SCP1 214 (40 pmol), 20 mM PNθP, 1-10 μM inhibitor) was “resistant”.
Take microcystin: the “SCP1 phosphatase activity in the presence of phosphatase inhibitor” value is “resistant”.
